Results taken from PubChem BioAssay (NCI).
Values joined by “and” are separate entries in the source; they are usually repeats but may differ in a detail not shown here. Equal entries are not always repeated.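 Grown in 96-well plates, cells were treated for 48 hours with each compound at five concentrations. Insufficient inhibition: endpoint recorded as highest concentration tested. GI50 is the concentration that inhibits growth by half. TGI is the concentration that stops growth completely.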

How the values were obtained:
Test in all cases: inhibition of tumour cell growth, NCI panel, 48 h
[1] = system: DLD-1 colon
[2] = system: KM20L2 colon
[3] = system: M19-MEL melanoma
[4] = system: HOP-18 NSCLC
[5] = system: HS 578T breast
[6] = system: NCI/ADR-RES ovarian
[7] = system: PC-3 prostate
[8] = system: MDA-N
[9] = system: RXF-631 renal

| SMILES | TGI [2] | TGI [3] | GI50 [5] | TGI [5] | GI50 [6] | TGI [6] | GI50 [7] | TGI [7] | also measured |
| --- | --- | --- | --- | --- | --- | --- | --- | --- | --- |
| CNS(=O)(=O)NN(C)S(=O)(=O)c1ccc(C)cc1 | > 100 µM | > 100 µM | – | – | – | – | – | – | TGI [1]: > 100 µM |
| COc1cc(-c2[nH]ncc2CCCC(=O)Nc2ccccc2[N+](=O)[O-])ccc1O | – | – | – | – | – | – | – | – | TGI [1]: > 100 µM; TGI [4]: > 100 µM |
| C=C1CCC2C3(C)COC(c4cccc(Cl)c4)OC3CCC2(C)C1/C=C/C1=CCOC1=O (stereo not given) | – | – | 7.42 µM | > 100 µM | 6.06 µM | > 100 µM | 3.77 µM | > 100 µM | – |
| O=[N+]([O-])c1ccc([I+]c2ccccc2)cc1 | – | – | 2 µM | 13.5 µM and 5.85 µM | 2.25 µM | > 29.1 µM and 6.92 µM | 2.16 µM | 11 µM and 5.21 µM | TGI [8]: 20.9 µM |
| COc1ccccc1NS(=O)(=O)c1cc(C(C)(C)C)ccc1OCCOc1ccc(C(C)(C)C)cc1S(=O)(=O)Nc1ccccc1OC | – | > 100 µM | – | – | – | – | – | – | TGI [1]: > 100 µM; TGI [4]: > 100 µM |
| CCCCCNC(=O)C1C(=O)N(CCCCC)C(=O)/C1=N\N (stereo not given) | > 100 µM | > 100 µM | – | – | – | – | – | – | TGI [1]: > 100 µM; TGI [4]: > 100 µM |
| COc1ccc(C(=O)Nc2ccccc2)cc1[N+](=O)[O-] | > 100 µM | > 100 µM | – | – | – | – | – | – | TGI [1]: > 100 µM; TGI [9]: > 100 µM |
| Cc1ccc(S(=O)(=O)OC(C=O)C(O)C(O)COC(c2ccccc2)(c2ccccc2)c2ccccc2)cc1 (stereo not given) | 27.4 µM | 26.1 µM | – | – | – | – | – | – | TGI [9]: 10.5 µM |
| COc1cc2nc(-c3ccc(Cl)cc3)cc(OCCCN3CCC(O)CC3)c2cc1OC | – | – | 1.91 µM | 6.65 µM | 0.925 µM | 14.8 µM | 2.02 µM | 12.7 µM | – |
| CCOc1ccc(NC(=O)/C(=C/c2ccccc2)C(C)=O)cc1 | 32.5 µM | 27.7 µM | – | – | – | – | – | – | TGI [1]: 24 µM; TGI [4]: 25.5 µM |
| C/C(=N\NC(=S)Nc1ccccc1)c1ccccn1 | – | – | 0.0857 µM | 38.4 µM | 0.0469 µM | 4.58 µM | < 0.0171 µM | 5.73 µM | – |
| O=S(=O)(Nc1ccc2ccc3cccc4ccc1c2c34)c1ccccc1 | – | – | – | > 100 µM | – | > 100 µM | – | > 100 µM | – |
| CCN(CC)c1ccc(/C=C/C2=[N+](C)c3ccccc3C2(C)C)cc1 | – | – | 0.152 µM | 20.9 µM | 13.9 µM | > 100 µM | 0.167 µM | 31.7 µM | – |
| COC(=O)CC(CC(=O)C(=O)OC)C(=O)OC (stereo not given) | > 100 µM | – | – | – | – | – | – | – | TGI [1]: > 100 µM |
| COC12c3ccccc3-c3ccccc3C1[C@@H](C(=O)O)[C@H]2C(=O)O (stereo not given in full) | – | – | – | > 10 µM | – | > 10 µM | – | > 10 µM | TGI [8]: > 10 µM |
| CC1(C)CC(C2CC(C)(C)CC(C)(C)[C@H]2O)[C@@H](O)C(C)(C)C1 (stereo not given in full) | > 100 µM | > 100 µM | – | – | – | – | – | – | – |
| Cn1cccc1C1CC(=O)N(CCC[Se]C#N)C1=O (stereo not given) | – | – | 2.44 µM | 7.33 µM | 2.69 µM | 7.85 µM | 2.19 µM | 5.63 µM | – |

| SMILES | TGI [2] | TGI [3] | GI50 [5] | TGI [5] | GI50 [6] | TGI [6] | GI50 [7] | TGI [7] | also measured |
| --- | --- | --- | --- | --- | --- | --- | --- | --- | --- |
| O=c1[nH]cnc2c1nnn2C1C=C(CO)C(O)C1O (stereo not given) | > 100 µM | > 100 µM | – | – | – | – | – | – | TGI [1]: > 100 µM; TGI [4]: > 100 µM |
| O=C(O)Cc1ccccc1 | – | – | > 1000 µM | > 1000 µM and 1780 µM | > 1000 µM | > 2000 µM | > 1000 µM | > 2000 µM | GI50 [8]: > 1000 µM; TGI [8]: > 2000 µM |
| O=C(/C=C/c1cccnc1)/C=C/c1cccnc1 | – | – | 3.44 µM | 17.3 µM | 4.08 µM | 30.6 µM | 0.558 µM | 3.01 µM | – |
| COc1cc2c(cc1OCCCN1CCN(CCCOc3cc4c(cc3OC)C(=O)C3CCC[C@H]3C=N4)CC1)N=C[C@@H]1CCCC1C2=O (stereo not given in full) | – | – | 1.42 µM | 15.1 µM | > 100 µM | > 100 µM | 2.99 µM | > 77.1 µM | – |
| COC(=O)Oc1nn(C(=O)OC)c(=O)c2ccccc12 (tested in a mixture with another compound) | – | – | – | > 100 µM | – | > 100 µM | – | > 100 µM | TGI [8]: > 100 µM |
| COC(=O)C1(C)CCc2c(ccc3ccccc23)C1=O (stereo not given) | – | – | – | > 100 µM | – | > 100 µM | – | > 100 µM | TGI [8]: 76.5 µM |
| Cn1cc(-c2csc(-c3cn(C)c4ncccc34)n2)c2ccccc21 | – | – | 0.451 µM | 18.8 µM | 0.135 µM | 3.47 µM | 0.397 µM | > 100 µM | – |
| CC1OC(OC2C(OC3CCC4(C)C(CCC5(C)C4CC=C4C6CC(C)(C)CCC6(CO)C(O)CC45C)C3(C)C)OC(C(=O)O)C(OC3OC(COC4OC(CO)C(O)C(O)C4O)C(O)C(O)C3O)C2O)C(O)C(O)C1O (stereo not given) | – | – | 13.1 µM | 34.6 µM | 11.5 µM | 23.6 µM | 1.56 µM | 3.92 µM | – |
| O=C1/C(=C\c2ccccc2)CN(C(=O)c2ccccc2F)C/C1=C\c1ccccc1 | – | – | 2.48 µM | 7.13 µM | 3.3 µM | 19.4 µM | 2.34 µM | 7.22 µM | – |
| NC(=NCc1ccccc1)N/N=C\c1ccnc2ccccc12 | – | – | – | 49.4 µM | – | 35.6 µM | – | 35.9 µM | TGI [8]: 26.6 µM |
| C#CCSc1nnnn1-c1ccc(Br)c(C)c1 | – | – | 2.86 µM | 26.9 µM | 17.4 µM | 72.7 µM | 34.7 µM | > 100 µM | – |
| Cn1cc(-c2nonc2-c2cn(C)c3ccc(Br)cc23)c2ccccc21 | – | – | – | – | 3.19 µM | > 100 µM | 4.06 µM | > 100 µM | – |
| CC(=O)[CH-]C(=O)c1ccccc1.CC(=O)[CH-]C(=O)c1ccccc1.[O-]Cc1cccs1.[O-]Cc1cccs1.[Ti+4] | > 100 µM | > 100 µM | – | – | – | – | – | – | GI50 [2]: 19.8 µM; GI50 [3]: 82 µM |
| OCCC#Cc1ccccc1C#Cc1ccccc1 | – | – | 11.9 µM | 33.3 µM | 17.9 µM | 53.6 µM | 13.7 µM | 35.5 µM | – |
| COc1cc(-c2cn(-c3ccc(Cl)cc3)c(=O)n2-c2ccccc2)cc(OC)c1OC | – | – | > 50.5 µM | 97.1 µM | > 92.9 µM | > 100 µM | 69.9 µM | > 100 µM | – |
| CC1=C(C(=O)Nc2cc(F)c(F)cc2F)C(c2cccc([N+](=O)[O-])c2)C(C(=O)Nc2ccccc2C(F)(F)F)=C(C)N1 (stereo not given) | 78.4 µM | 91.5 µM | – | – | – | – | – | – | TGI [1]: 94.7 µM; TGI [9]: 49.3 µM |
